# According to a melting point compilation (Tetko et al.; mined from patent text by program, amines drawn as free bases though some values may be those of a salt):
row,Compound,melting point [°C]
1,CS(=O)(=O)c1ccc(-c2oc(CCCC(=O)O)nc2-c2ccc(F)cc2)cc1,140 to 141
2,CC(c1ccc(Cl)cc1)N1CCNC1=NC#N (stereo not drawn),133
3,CC(C(=O)O)c1ccc(CC(Cl)(Cl)Cl)c(F)c1 (stereo not drawn),92 to 94
4,CN1CC(CN)Oc2c(-c3ccc(Cl)cc3Cl)cccc21 (stereo not drawn),90
5,COc1ccc(Cl)cc1NC(=O)CN1CCN(CC(=O)N2CC=C(c3cccc(C(F)(F)F)c3)n3ncc(C#N)c32)CC1,166 to 168
6,CCN(CC)CC(O)CSCC(=O)O (stereo not drawn),104
7,CCCc1nn(C)c2c(=O)[nH]c(-c3cc(C(O)CN4CCNCC4)ccc3OCC)nc12 (stereo not drawn),130 to 140
8,Nc1ccc2oc([N+](=O)[O-])c(-c3ccccc3)c2c1,125 to 127
9,C=C(N=[N+]=[N-])c1cn(COCCO)c(=O)[nH]c1=O,141 to 142
10,CCCC(CCC)c1ccc(COc2ccc(-c3csc(COc4cncc(C(=O)O)c4)n3)cc2)cc1,172 to 174
11,CCc1cccc(C)c1NC(=O)C(C)N (stereo not drawn),68.5 to 70
12,COc1cc(Nc2c(C#N)cnc3cc(C#CCCN4CCNCC4)c(OC)cc23)c(Cl)cc1Cl,188 to 190
13,CC(C)(C)OC(=O)C=Cc1ccc(-c2ccc3ncnc(Nc4ccc(OCc5cccc(F)c5)c(Cl)c4)c3c2)cc1,212
14,NC(=O)c1nc(-c2ccncc2)nc2c1NC(=O)CN2c1ccccc1,298 to 304
15,Cc1cc(NC(C)(C)C)nc(Cl)c1C#N,109
16,CC(=O)c1cccc2c1OC1(CC1)C2=O,114 to 115
17,Cc1nn([N+](=O)[O-])cc1-c1ncc([N+](=O)[O-])n1C,148
18,O=C(CBr)c1ccc(S(=O)(=O)Cl)cc1,111
19,Oc1cc2c(-c3ccccc3)csc2c(Cl)c1Cl,157 to 159
20,CCCCNc1cc(C#N)cc(S(N)(=O)=O)c1Oc1ccccc1,217 to 218
21,"CCCCCCCCCCCCOC(C)c1ccc(C(=O)O)cc1 (single isomer, unassigned; (+))",49.5 to 50
22,COc1cc(Nc2nccc(-c3ccc(NCCCN4CCOCC4)nc3)n2)cc(OC)c1OC,165 to 166
23,Cc1cc2c(cc1O)C(C)(C)CC1(CC(C)(C)c3cc(OCCO)c(C)cc3O1)O2 (stereo not drawn),186 to 188
24,O=S1(=O)CCON=C1c1c(Cl)cccc1Cl,180 to 182
25,c1ccc(C2=NOC3(CCNCC3)C2)cc1,115
26,Cn1cc(C2=C(c3c[nH]c4cc([N+](=O)[O-])ccc34)C(=O)NC2=O)c2ccccc21,> 260

row,Compound,melting point [°C]
1,O=C(NCCO)c1cccc(-c2ccc3ccn(Cc4ccc(Cl)cc4Cl)c3c2)c1,124 to 125
2,COC1OCOc2cc3c4c(cccc4c21)C(=O)N(O)C3=O (stereo not drawn),249 to 251
3,O=c1oc2cc(Cl)cnc2n1CCl,105 to 107
4,Cc1nnc(C(=O)CCCCCCOc2ccc(O)cc2)o1,134 to 135
5,O=C(O)Cn1c(=O)c(=O)[nH]c2ccc3ccc(-n4ccc(CN5CC=C(c6ccccc6)CC5)c4)cc3c21,> 250
6,N#CNc1nc2ccc(Cl)cc2[nH]1,> 300
7,CC(C)S(=O)(=O)c1cc(O)c(N)c(C#N)c1,166 to 167
8,O=C1c2c(Cl)cccc2-n2cnc(-c3cccs3)c2[C@@H]2CCCN12,226 to 227
9,OCc1ccccc1NCc1c(O)ccc2c1CCCO2,151 to 153
10,O=C(CCl)c1ccc2c(c1)[nH]c1ccccc12,203 to 204
11,CCCCc1oc2ccccc2c1S(=O)(=O)c1ccc(O)cc1,163 to 165
12,Cc1cc(O)c(SCCc2ccccc2)c(=O)o1,100 to 101
13,Cc1cc(C)cc(Sc2c(C(C)C)c(=O)[nH]c(=O)n2CC2=CCCC2CO)c1 (stereo not drawn),66 to 68
14,CCC(=O)NC1Cc2ccccc2C(c2ccccc2)C1 (stereo not drawn),144 to 146
15,Cc1cccc2c1CCNC2=O,141 to 143
16,COc1ccc(CC(=O)O)c(OCCc2ccccc2)c1,107 to 108
17,CN1CCc2[nH]c3ccc4sccc4c3c2C1,189
18,CN1CC[C@]2(c3cccc(O)c3)CC(=O)CC[C@@H]2C1 (relative stereo),175
19,CN(C)C=C1C(=O)N(c2cccc(Cl)c2)c2ccccc21,116 to 118
20,CCNC(=O)CCc1cnoc1-c1ccccc1,75 to 76
21,COc1cc2c(Nc3cccc(N(C)C)c3)c(C#N)cnc2c(OC)c1OC,142 to 144
22,CS(=O)c1ccc(-n2cnnn2)cc1 (stereo not drawn),175 to 176
23,O=C1C=CC(=O)N1c1cccc(I)c1,154 to 155
24,NC(=O)NCCS(=O)CC(O)CO (stereo not drawn),102
25,COc1ccc2c(=O)[nH]c(=O)[nH]c2c1OC,314 to 316
26,C=C(OCC)c1nc(-c2ccco2)c2ncn(Cc3ccc(OC)cc3)c2n1,144 to 145

row,Compound,melting point [°C]
1,Cc1nc(N(C)C)nc(N)c1-c1cc(Cl)cc(Cl)c1Cl,151 to 153
2,CC(C(=O)Nc1ccc(Cl)cc1Cl)N1C(=O)C=CC1=O (stereo not drawn),131
3,CCOC(=O)C1=C(C)NC(N=CN(C)C)=C(C(=O)OCC)C1c1cccc(OC)c1 (stereo not drawn),136
4,CCn1ncc2c1ncc1c(N)nc3cc(C)nn3c12,248 to 250
5,O=C(c1ccccc1)n1c2c(c3ccccc31)CC(C(=O)O)(C(=O)O)CC2,160
6,CCN(C(C)=O)c1cc([N+](=O)[O-])cc([N+](=O)[O-])c1,98 to 100
7,C=CC[C@@H]1C[C@@H](COc2ccc(-c3ccc(C#N)cc3)cc2)N(Cc2ccc(OC)cc2)C1=O,120 to 122
8,COc1cc(C(=O)Nc2cc(C(=O)c3ccccc3)ccc2N2CCOCC2)cc(OC)c1OC,171 to 172
9,Fc1ccc(Nc2ncnc3cnc(NCCN4CCNCC4)nc23)cc1Cl,173 to 175
10,N[C@@H](CO)C(=O)Nn1cccc1,135 to 137
11,CCOC(=O)c1ccc(/C=C(\C)c2ccc(OC)c(C3(C)CCCCC3)c2)cc1,60 to 62
12,NC(=O)c1ncn(C2OC(COC(=O)c3ccccc3)C(O)C2O)n1 (stereo not drawn),182 to 184
13,Cc1cc(Br)ccc1-n1c(CF)nc2ccc([N+](=O)[O-])cc2c1=O,208 to 210
14,CCOc1cc(Nc2cccc3c2C(=O)N(C2CCC(=O)NC2=O)C3=O)ccc1OC (stereo not drawn),162 to 164
15,N#Cc1ccc(N2CCC(=O)CC2)c2ccccc12,143 to 144
16,COc1ccc(-c2csc(N)n2)cc1OC1CC2CCC1C2 (stereo not drawn),168 to 178
17,C/C(=C(\C#N)C(N)=S)N1CCCN(c2ccccc2Cl)CC1,123 to 124
18,CC(=O)c1ccccc1Nc1nc(Nc2ccc3c(c2)CCCC(=O)N3C)ncc1Cl,215 to 217
19,COc1ccccc1-n1c(CSc2ncnc3[nH]cnc23)nc2cccc(Cl)c2c1=O,237
20,CC(C)=NOCc1nc2c(N)nc3cccnc3c2n1CCCNC(=O)C(C)C,195 to 197
21,COc1ccc(-n2nc(CBr)cc2-c2ccc(Cl)cc2)cc1,88 to 90
22,CCc1cc2c(=O)[nH]c(CO)nc2s1,202
23,CCOC(=O)CCCN1CCC[C@H](NCc2ccccc2OC)[C@@H]1c1ccccc1 (relative stereo),75 to 90
24,CN(C)CCSC(=O)c1c[nH]c(=S)n1C1CCc2c(F)cc(F)cc2C1 (stereo not drawn),204 to 206
25,CC(C)(C)n1nnc(Cc2ccc(C(=O)O)cc2)n1,139 to 140
26,O=[N+]([O-])c1ccc(Nc2ccccc2)s1,186

row,Compound,melting point [°C]
1,COc1cccc2oc(-c3ccc(C(F)(F)F)cc3)cc(=O)c12,190 to 191
2,CC(C)(C)c1ccc(S(=O)(=O)Oc2ccc(C(c3ccc(OS(=O)(=O)c4ccc(C(C)(C)C)cc4)cc3)(C(F)(F)F)C(F)(F)F)cc2)cc1,177 to 180
3,Cc1cc2c(cc1C13CC1CCC3=O)C(C)(C)CCC2(C)C (stereo not drawn),152 to 154
4,O=C(Nc1cccc(C(F)(F)F)c1)C1C(=O)C2CCC(C2)C1=O (stereo not drawn),68 to 69
5,Nc1c(C(F)(F)F)cnn1-c1c(Cl)cc(C(F)(F)F)cc1Cl,106
6,CCOc1nn(-c2ccc(C(F)(F)F)cn2)cc1CCOc1cccc(CC(=O)O)c1,128 to 130
7,O=C(NO)[C@H]1CN(C(=O)NC2CCCCC2)CCN1S(=O)(=O)c1ccc(-c2ccc(F)cc2)s1,111 to 123
8,CC(=O)COc1c(-c2ccc(S(C)(=O)=O)cc2)cnn(-c2ccc(F)c(F)c2)c1=O,169 to 170
9,C=CC(=O)Nc1cc2c(N(C(C)=O)c3ccc(F)c(Cl)c3)ncnc2cc1OCCCN1CCOCC1,143
10,CCOC(=O)c1cnc2c(O)nccn2c1=O,> 300
11,CCCCCCCCCCN(CCC12CC3CC(CC(C3)C1)C2)C(=O)NCCCc1ccncc1,75 to 76
12,CCOC(=O)c1ccc(C)c(NC(=O)C2=C(C)OCCS2)c1,105 to 107
13,CN(C)C(=O)n1c(CN2CCN(c3ccccn3)CC2)nc2ccccc21,174 to 176
14,COc1cc(OC)nc(OC)c1,47 to 49
15,N#Cc1c(-c2ccc(Cl)cc2)[nH]c(Cl)c1Cl,259 to 261
16,CCN(CC)c1ccc(C=CC2=NC(C#N)=C(C#N)N=CC2)cc1,> 300
17,O=Cc1cn(-c2c(Cl)cc(C(F)(F)F)cc2Cl)c2ccccc12,167 to 169
18,Cc1cc(SC2=C(O)CC(CCc3ccsc3CO)(C(C)C)OC2=O)c(C(C)(C)C)cc1CO (stereo not drawn),87 to 90
19,O=c1ncc(Cl)cn1CCCl,167 to 168
20,CNS(=O)(=O)c1cc(Cl)sc1C(=O)O,103 to 104
21,CC(C)n1c(C(=O)O)c(-c2ccc(F)cc2)c2ccccc2c1=O,128 to 130
22,CCOC(=O)C1CCN(S(=O)(=O)c2ccc(Br)cc2)CC1,132 to 133
23,Cc1c(Cl)c(Oc2ccc(C(F)(F)F)cc2[N+](=O)[O-])nn1C(=O)NC(C)C,89 to 91
24,COc1ncccc1-c1cccn2nc(Nc3ccc4ncccc4c3)nc12,247 to 249
25,COc1ccc(CN(C)CCCOc2ccc(S(=O)(=O)c3c(C(C)C)cn4ccccc34)cc2)cc1OC,96 to 100
